In publication doi:10.1101/2022.12.01.518659v1 (biorxiv, 2022):
Where a name gives a salt, the structure may show the parent alone.

Molecular target: Atx3 13Q (Homo sapiens, UniProt P54252, OF/POLYQ/Q/TRACT)
Experiment: ThT fluorescence aggregation assay
Assay type: biochemical

Chain of Atx3 13Q (P54252 whole entry, change not shown): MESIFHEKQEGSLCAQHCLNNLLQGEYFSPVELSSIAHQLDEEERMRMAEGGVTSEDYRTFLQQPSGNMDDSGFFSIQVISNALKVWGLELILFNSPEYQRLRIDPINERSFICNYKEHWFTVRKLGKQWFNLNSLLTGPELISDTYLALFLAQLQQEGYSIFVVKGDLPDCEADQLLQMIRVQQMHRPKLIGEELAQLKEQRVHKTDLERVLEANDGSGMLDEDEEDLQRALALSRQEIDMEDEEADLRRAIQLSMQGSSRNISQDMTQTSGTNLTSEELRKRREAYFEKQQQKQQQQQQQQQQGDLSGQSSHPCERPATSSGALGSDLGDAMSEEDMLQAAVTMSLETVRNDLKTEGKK

IC50 | SMILES
80 nM | Cc1cc(C2CCCCC2)n(O)c(=O)c1 [ciclopirox ethanolamine]
110 nM | NCCc1ccc(O)c(O)c1 [dopamine hydrochloride]
120 nM | O=C(O)CN(CCN(CC(=O)O)CC(=O)O)CCN(CC(=O)O)CC(=O)O [pentetic acid]
20 nM | Cc1ccc(C(=O)c2cc(O)c(O)c([N+](=O)[O-])c2)cc1 [tolcapone]
